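48-hour exposure; five concentrations; linearly interpolated endpoints. GI50: concentration for 50% inhibition of growth.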 Calls of active or inactive are those of the source. No stated cut-off is given here; in the data, active = GI50 up to about 1.1 µM and inactive = higher.
Experiments:
Experiment in all cases: growth of human tumour cells (NCI), 48 h
786-0 = system: 786-0
A498 = system: A498
A549 = system: A549
ACHN = system: ACHN
CAKI-1 = system: CAKI-1
CCRF-CEM = system: CCRF-CEM
COLO 205 = system: COLO 205
DLD-1 = system: DLD-1
DMS-114 = system: DMS-114
DMS-273 = system: DMS-273
EKVX = system: EKVX
HCC 2998 = system: HCC 2998
HCT-116 = system: HCT-116
HCT-15 = system: HCT-15
HL-60 = system: HL-60
HOP-18 = system: HOP-18
HOP-62 = system: HOP-62
HOP-92 = system: HOP-92
HT-29 = system: HT-29
IGROV-1 = system: IGROV-1
K562 = system: K562
KM-20L2 = system: KM-20L2
KM12 = system: KM12
LOX IMVI = system: LOX IMVI
LXFL 529 = system: LXFL 529
M14 = system: M14
M19-MEL = system: M19-MEL
MOLT-4 = system: MOLT-4
Malme-3M = system: Malme-3M
NCI-H226 = system: NCI-H226
NCI-H23 = system: NCI-H23
NCI-H460 = system: NCI-H460
NCI-H522 = system: NCI-H522
OVCAR-3 = system: OVCAR-3
OVCAR-4 = system: OVCAR-4
OVCAR-5 = system: OVCAR-5
OVCAR-8 = system: OVCAR-8
RPMI-8226 = system: RPMI-8226
SF-268 = system: SF-268
SF-295 = system: SF-295
SF-539 = system: SF-539
SK-MEL-2 = system: SK-MEL-2
SK-OV-3 = system: SK-OV-3
SN12C = system: SN12C
SNB-19 = system: SNB-19
SNB-78 = system: SNB-78
SW-620 = system: SW-620
TK-10 = system: TK-10
U-251 = system: U-251
UACC-257 = system: UACC-257
UACC-62 = system: UACC-62
UO-31 = system: UO-31
XF498 = system: XF498
RXF 631 = system: RXF 631
SK-MEL-28 = system: SK-MEL-28
SK-MEL-5 = system: SK-MEL-5
RXF 393 = system: RXF 393
SNB-75 = system: SNB-75

O=C(CCc1cc(-c2ccccc2)nc(S)n1)N(Cc1ccccc1)Cc1ccccc1 was tested, and the GI50 (786-0) was > 100 µM (inactive), the GI50 (A498) was > 100 µM (inactive) and the GI50 (A549) was > 100 µM (inactive). The GI50 (ACHN) was > 100 µM (inactive), the GI50 (CAKI-1) was > 100 µM (inactive) and the GI50 (CCRF-CEM) was > 100 µM (inactive). The GI50 (COLO 205) was > 100 µM (inactive), the GI50 (DLD-1) was > 100 µM (inactive) and the GI50 (DMS-114) was > 100 µM (inactive). For the same molecule, the GI50 (DMS-273) was > 100 µM (inactive), the GI50 (EKVX) was > 100 µM (inactive) and the GI50 (HCC 2998) was > 100 µM (inactive). For the same molecule, the GI50 (HCT-116) was > 100 µM (inactive), the GI50 (HCT-15) was greater than 100 µM and the GI50 (HL-60) was > 100 µM (inactive). The GI50 (HOP-18) was > 100 µM (inactive), the GI50 (HOP-62) was > 100 µM (inactive) and the GI50 (HOP-92) was 97.3 µM (inactive). For the same molecule, the GI50 (HT-29) was > 100 µM (inactive), the GI50 (IGROV-1) was > 100 µM (inactive) and the GI50 (K562) was > 100 µM (inactive). For the same molecule, the GI50 (KM-20L2) was > 100 µM (inactive), the GI50 (KM12) was > 100 µM (inactive) and the GI50 (LOX IMVI) was > 100 µM (inactive). The GI50 (LXFL 529) was > 100 µM (inactive), the GI50 (M14) was > 100 µM (inactive) and the GI50 (M19-MEL) was > 100 µM (inactive). The GI50 (MOLT-4) was > 100 µM (inactive), the GI50 (Malme-3M) was > 100 µM (inactive) and the GI50 (NCI-H226) was > 100 µM (inactive). The GI50 (NCI-H23) was > 100 µM (inactive), the GI50 (NCI-H460) was > 100 µM (inactive) and the GI50 (NCI-H522) was > 100 µM (inactive). The GI50 (OVCAR-3) was > 100 µM (inactive), the GI50 (OVCAR-4) was > 100 µM (inactive) and the GI50 (OVCAR-5) was > 100 µM (inactive). For the same molecule, the GI50 (OVCAR-8) was > 100 µM (inactive), the GI50 (RPMI-8226) was > 100 µM (inactive) and the GI50 (SF-268) was > 100 µM (inactive). The GI50 (SF-295) was > 100 µM (inactive), the GI50 (SF-539) was > 100 µM (inactive) and the GI50 (SK-MEL-2) was > 100 µM (inactive). The GI50 (SK-OV-3) was > 100 µM (inactive), the GI50 (SN12C) was > 100 µM (inactive) and the GI50 (SNB-19) was > 100 µM (inactive). The GI50 (SNB-78) was > 100 µM (inactive), the GI50 (SW-620) was > 100 µM (inactive) and the GI50 (TK-10) was > 100 µM (inactive). For the same molecule, the GI50 (U-251) was > 100 µM (inactive), the GI50 (UACC-257) was > 100 µM (inactive) and the GI50 (UACC-62) was > 100 µM (inactive). For the same molecule, the GI50 (UO-31) was > 100 µM (inactive) and the GI50 (XF498) was > 100 µM (inactive).

CCCCCCCCCCCCCCCCCC(=O)NCC(COP(=O)([O-])OCC[N+](C)(C)C)OCC (centres undefined) was tested, and the GI50 (A549) was 19.2 µM (inactive), the GI50 (DMS-114) was 18.5 µM (inactive) and the GI50 (DMS-273) was 0.137 µM (active). The GI50 (EKVX) was 21.9 µM (inactive), the GI50 (KM-20L2) was 0.237 µM (active) and the GI50 (LOX IMVI) was 24.9 µM (inactive). For the same molecule, the GI50 (Malme-3M) was 21.3 µM (inactive), the GI50 (NCI-H23) was 19.7 µM (inactive) and the GI50 (RXF 631) was 22.2 µM (inactive). The GI50 (SF-539) was 17.7 µM (inactive), the GI50 (SK-MEL-28) was 18.2 µM (inactive) and the GI50 (SK-MEL-5) was 17.7 µM (inactive). For the same molecule, the GI50 (SK-OV-3) was 19.4 µM (inactive), the GI50 (SNB-19) was 0.174 µM (active) and the GI50 (UACC-257) was 18.6 µM (inactive). The GI50 (UO-31) was 19.5 µM (inactive).

With O=C1CCC2COc3ccc(O)c1c32 (centres undefined) the GI50 (A498) was > 100 µM (inactive), the GI50 (A549) was > 100 µM (inactive) and the GI50 (ACHN) was > 100 µM (inactive). For the same molecule, the GI50 (CAKI-1) was > 100 µM (inactive), the GI50 (CCRF-CEM) was > 100 µM (inactive) and the GI50 (COLO 205) was > 100 µM (inactive). For the same molecule, the GI50 (DMS-114) was > 100 µM (inactive), the GI50 (DMS-273) was > 100 µM (inactive) and the GI50 (EKVX) was 51.2 µM (inactive). For the same molecule, the GI50 (HCT-116) was > 100 µM (inactive), the GI50 (HCT-15) was greater than 100 µM and the GI50 (HL-60) was > 100 µM (inactive). For the same molecule, the GI50 (HOP-18) was > 100 µM (inactive), the GI50 (HOP-92) was 79.3 µM (inactive) and the GI50 (HT-29) was > 100 µM (inactive). The GI50 (IGROV-1) was > 100 µM (inactive), the GI50 (K562) was > 100 µM (inactive) and the GI50 (KM-20L2) was > 100 µM (inactive). For the same molecule, the GI50 (LOX IMVI) was > 100 µM (inactive), the GI50 (LXFL 529) was > 100 µM (inactive) and the GI50 (M14) was > 100 µM (inactive). For the same molecule, the GI50 (M19-MEL) was > 100 µM (inactive), the GI50 (MOLT-4) was > 100 µM (inactive) and the GI50 (NCI-H23) was > 100 µM (inactive). For the same molecule, the GI50 (NCI-H460) was > 100 µM (inactive), the GI50 (OVCAR-3) was > 100 µM (inactive) and the GI50 (OVCAR-4) was > 100 µM (inactive). For the same molecule, the GI50 (OVCAR-8) was > 100 µM (inactive), the GI50 (RPMI-8226) was > 100 µM (inactive) and the GI50 (RXF 393) was > 100 µM (inactive). The GI50 (SF-295) was > 100 µM (inactive), the GI50 (SF-539) was > 100 µM (inactive) and the GI50 (SK-MEL-28) was > 100 µM (inactive). The GI50 (SK-MEL-5) was > 100 µM (inactive), the GI50 (SK-OV-3) was > 100 µM (inactive) and the GI50 (SN12C) was > 100 µM (inactive). For the same molecule, the GI50 (SNB-19) was 24.1 µM (inactive), the GI50 (SNB-75) was 77.6 µM (inactive) and the GI50 (SNB-78) was > 100 µM (inactive). The GI50 (SW-620) was > 100 µM (inactive), the GI50 (TK-10) was > 100 µM (inactive) and the GI50 (U-251) was > 100 µM (inactive). The GI50 (UACC-257) was > 100 µM (inactive), the GI50 (UACC-62) was > 100 µM (inactive) and the GI50 (XF498) was > 100 µM (inactive).

— ChEMBL document CHEMBL1201862, “PubChem BioAssay data set” (2004)
